The text below walks through data of PubChem BioAssay (NCI).

Where “and” joins values, the source holds several entries; their conditions need not be identical. Equal values may be shown once.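 Dose response: 5 concentrations. Exposure: 48 h. Format: 96-well plates. Endpoint: linear interpolation; highest concentration if not reached. Abbreviation: GI50, concentration required for 50% inhibition of growth. TGI denotes the concentration required for complete inhibition of growth.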

Test systems include EKVX NSCLC; HOP-62 NSCLC; HOP-92 NSCLC; IGROV1 ovarian; NCI-H460 lung; OVCAR-8 ovarian; SK-OV-3 ovarian; SW-620 colon; TK-10 renal; UO-31 renal.
Holding throughout (assay): NCI anticancer screen, dose series, 48 h

Consider `CS(=O)/C(C#N)=C\C=C\c1cccc(Cl)c1` (stereo not given), for which the GI50 in the test on EKVX NSCLC is 3.66 µM; in the test on HOP-62 NSCLC, 4.56 µM; in the test on HOP-92 NSCLC, 2.93 µM; in the test with IGROV1 ovarian it was 2.08 µM; in the test on NCI-H460 lung it was 2.41 µM; with OVCAR-8 ovarian it was 3.78 µM. Moreover, the GI50 in the test with SK-OV-3 ovarian was 10.6 µM; in the test on SW-620 colon it was 2.71 µM; in the test with TK-10 renal it was 5.59 µM; in the test on UO-31 renal it was 1.97 µM. Moreover, the TGI came out at 16.7 µM with EKVX NSCLC; 16.2 µM with HOP-62 NSCLC; 7 µM in the test with HOP-92 NSCLC; 10.3 µM in the test with IGROV1 ovarian; 11.2 µM in the test on NCI-H460 lung; 17.9 µM in the test on OVCAR-8 ovarian. Also, the TGI stood at 26.4 µM in the test on SK-OV-3 ovarian, 11.6 µM with SW-620 colon, 17.5 µM in the test with TK-10 renal and 6.56 µM in the test with UO-31 renal.
Take `O=C1c2cccc3cccc(c23)C(=O)N1CC#Cc1ccc2c3c(cccc13)C(=O)N(CCN1CCNCC1)C2=O`: the GI50 in the test on EKVX NSCLC was 15.7 µM; in the test with HOP-62 NSCLC, 5.09 µM; in the test on HOP-92 NSCLC, 4 µM; with IGROV1 ovarian it was 3.2 µM; in the test on NCI-H460 lung, 1.92 µM; with OVCAR-8 ovarian it was 2.18 µM. Moreover, the GI50 is 25.7 µM in the test with SK-OV-3 ovarian, 1.94 µM with SW-620 colon, 2.61 µM in the test with TK-10 renal and 20.6 µM in the test with UO-31 renal. Also, the TGI in the test on EKVX NSCLC is 39.7 µM; with HOP-62 NSCLC, 30.1 µM; in the test with HOP-92 NSCLC, 20.5 µM; in the test on IGROV1 ovarian, 13 µM; with NCI-H460 lung it was 3.6 µM; with OVCAR-8 ovarian, 5.16 µM. The TGI in the test on SK-OV-3 ovarian worked out at 62.6 µM; with SW-620 colon, 3.79 µM; in the test on TK-10 renal, 7.54 µM; in the test on UO-31 renal, 84.8 µM.
For the compound `COc1ccc(-c2nnc(Nc3nc(O)c(C4=c5cc(OC(F)(F)F)ccc5=NC4=O)s3)o2)cc1`, the GI50 in the test with EKVX NSCLC is 31.6 µM; with HOP-62 NSCLC it was 15.7 µM; in the test with HOP-92 NSCLC, 15.7 µM; with IGROV1 ovarian, 22 µM; in the test with NCI-H460 lung, 22 µM; in the test with OVCAR-8 ovarian it was 22.7 µM. The GI50 in the test on SK-OV-3 ovarian was 17.4 µM; with SW-620 colon, 38.2 µM; with TK-10 renal, 20.5 µM; with UO-31 renal, 21.9 µM. Also, the TGI is 71.7 µM in the test on EKVX NSCLC; 30.3 µM with HOP-62 NSCLC; 43.5 µM with HOP-92 NSCLC; 60.7 µM with IGROV1 ovarian; greater than 100 µM in the test with NCI-H460 lung; 99.5 µM with OVCAR-8 ovarian. Further, the TGI in the test with SK-OV-3 ovarian was 44 µM; in the test with SW-620 colon, greater than 100 µM; in the test on TK-10 renal it was 58.2 µM; in the test with UO-31 renal it was 54.3 µM.
Regarding `CCOC(=O)C1=C(C)NC(C)=C(C(=O)OCC)C1c1cc(Br)c(O)c(OC)c1`, the GI50 with EKVX NSCLC was 7.65 µM; in the test on HOP-62 NSCLC it was 4.37 µM; with HOP-92 NSCLC, 1.82 µM; in the test with IGROV1 ovarian, 7.39 µM; in the test with NCI-H460 lung, 3.98 µM; in the test on OVCAR-8 ovarian, 4.47 µM. In addition, the GI50 in the test with SK-OV-3 ovarian is 2.92 µM; in the test with SW-620 colon it was 4.12 µM; with TK-10 renal it was 9.54 µM; with UO-31 renal, 4.55 µM. Further, the TGI in the test on EKVX NSCLC stood at 34.4 µM; in the test with HOP-62 NSCLC, 14.7 µM; in the test with HOP-92 NSCLC, 12.3 µM; in the test with IGROV1 ovarian, 37.2 µM; in the test with NCI-H460 lung it was 14.4 µM; in the test on OVCAR-8 ovarian, 38.9 µM. Also, the TGI in the test with SK-OV-3 ovarian is 7.38 µM; with SW-620 colon, 16.3 µM; with TK-10 renal it was 39.2 µM; in the test on UO-31 renal, 25.2 µM.
`O=C1c2ccccc2C(=O)c2c(NCCNCCO)ccc(NCCNCCO)c21`: the GI50 with EKVX NSCLC is 1.97 µM and 3.65 µM; in the test with HOP-62 NSCLC, 0.422 µM and 0.473 µM and 0.509 µM; in the test on HOP-92 NSCLC it was 0.289 µM and 0.508 µM and 0.227 µM; in the test on IGROV1 ovarian it was 1.14 µM and 0.55 µM and 0.811 µM; in the test on NCI-H460 lung it was 0.127 µM and 0.158 µM and 0.189 µM; in the test with OVCAR-8 ovarian it was 0.349 µM and 0.718 µM and 0.821 µM. Also, the GI50 is 1.26 µM and 1.45 µM and 2.06 µM in the test on SK-OV-3 ovarian; 1.15 µM and 1.08 µM and 0.838 µM in the test with SW-620 colon; 2.89 µM and 2.55 µM and 1.33 µM in the test with TK-10 renal; 5.36 µM and 1.58 µM and 2.79 µM in the test on UO-31 renal. In addition, the TGI in the test with EKVX NSCLC was 10.4 µM and 26.3 µM; in the test with HOP-62 NSCLC it was 4.19 µM and 3.82 µM and 4.76 µM; with HOP-92 NSCLC, 4.94 µM and 5.08 µM and 2.08 µM; in the test with IGROV1 ovarian it was 10.3 µM and 9.84 µM; in the test on NCI-H460 lung it was 1.91 µM and 3.38 µM and 2.16 µM; in the test on OVCAR-8 ovarian, 6.5 µM and 6.81 µM and 6.08 µM. Also, the TGI with SK-OV-3 ovarian was 11.5 µM and 9.32 µM and 11.8 µM; in the test on SW-620 colon it was 11.8 µM and 13.5 µM and 11.3 µM; with TK-10 renal, 24.6 µM and 22.5 µM and 8.88 µM; with UO-31 renal, 38.1 µM and 27.7 µM and 36.9 µM.
`Cc1nn2c(=O)n(-c3cccc(-n4nnc5c(-c6ccccc6)c(C)nn5c4=O)c3C)nnc2c1-c1ccccc1`: the TGI is greater than 100 µM in the test with EKVX NSCLC; greater than 100 µM with HOP-62 NSCLC; greater than 100 µM with HOP-92 NSCLC; greater than 100 µM in the test with IGROV1 ovarian; 50.1 µM in the test with NCI-H460 lung; greater than 100 µM with OVCAR-8 ovarian. The TGI was greater than 100 µM in the test on SK-OV-3 ovarian, 48.4 µM in the test on SW-620 colon, greater than 100 µM in the test with TK-10 renal and greater than 100 µM in the test with UO-31 renal.
